According to patent US20220177508A1, “C10-Cyclic Substituted 13-Membered Macrolides and Uses Thereof” (Zikani Therapeutics, Inc., priority 2018, published 2022):
In brackets after ≈: the same amount, converted by molar mass.

Experiments:
Format in all cases: cell-based
P. aeruginosa MP-3 = assay: Broth dilution MIC determination (CLSI), P. aeruginosa MP-3; details: Pseudomonas aeruginosa, MP3; strain MP-3, broth dilution
K. pneumoniae MP-546 = assay: Broth dilution MIC determination (CLSI), K. pneumoniae MP-546; details: Klebsiella pneumoniae, MP546; strain MP-546, broth dilution
E. coli MP-4 = assay: Broth dilution MIC determination (CLSI), E. coli MP-4; details: Escherichia coli, MP4; strain MP-4, broth dilution; read-out: MIC E. coli MP-4
S. aureus MP-12 = assay: Broth dilution MIC determination (CLSI), S. aureus MP-12; details: Staphylococcus aureus, MP12; strain MP-12, broth dilution
A. baumannii MP-15 = assay: Broth dilution MIC determination (CLSI), A. baumannii MP-15; details: Acinetobacter baumannii, MP15; strain MP-15, broth dilution; read-out: MIC A. baumanii MP-15

| Compound | MIC (P. aeruginosa MP-3) [µg/mL] | MIC (K. pneumoniae MP-546) [µg/mL] | MIC (E. coli MP-4) [µg/mL] | MIC (S. aureus MP-12) [µg/mL] | MIC (A. baumannii MP-15) [µg/mL] |
| --- | --- | --- | --- | --- | --- |
| CCCN1C[C@H](C)C[C@@](C)(OC)[C@H](O[C@@H]2O[C@H](C)C[C@H](N(C)C)[C@H]2O)[C@@H](C)C(=O)C(C)(C)C(=O)OC[C@H]1C1CN(C(=O)CN(C)C)C1 [Compound 68, (3R,6R,8R,9R,10R)-9-(((2S,3R,4S,6R)-4-(dimethylamino)-3-hydroxy-6-methyltetrahydro-2H-pyran-2-yl)oxy)-3-(1-(dimethylglycyl)azetidin-3-yl)-8-methoxy-6,8,10,12,12-pentamethyl-4-propyl-1-oxa-4-azacyclotridecane-11,13-dione] | > 32 | 4 to 32 (≈ 5.98 to 47.8 µM) | < 4 | 4 to 32 (≈ 5.98 to 47.8 µM) | > 32 |
| CCN1C[C@H](C)C[C@@](C)(OC)[C@H](O[C@@H]2O[C@H](C)C[C@H](N(C)C)[C@H]2O)[C@@H](C)C(=O)C(C)(C)C(=O)OC[C@H]1C1CN(CC(C)C)C1 [Compound 70, (3R,6R,8R,9R,10R)-9-(((2S,3R,4S,6R)-4-(dimethylamino)-3-hydroxy-6-methyltetrahydro-2H-pyran-2-yl)oxy)-4-ethyl-3-(1-isobutylazetidin-3-yl)-8-methoxy-6,8,10,12,12-pentamethyl-1-oxa-4-azacyclotridecane-11,13-dione] | > 32 | 4 to 32 (≈ 6.39 to 51.1 µM) | < 4 | 4 to 32 (≈ 6.39 to 51.1 µM) | > 32 |
| CO[C@]1(C)C[C@@H](C)CN(C)[C@H](C2CN(C3CCCCC3)C2)COC(=O)C(C)(C)C(=O)[C@H](C)[C@H]1O[C@@H]1O[C@H](C)C[C@H](N(C)C)[C@H]1O [Compound 73, (3R,6R,8R,9R,10R)-3-(1-cyclohexylazetidin-3-yl)-9-(((2S,3R,4S,6R)-4-(dimethylamino)-3-hydroxy-6-methyltetrahydro-2H-pyran-2-yl)oxy)-8-methoxy-4,6,8,10,12,12-hexamethyl-1-oxa-4-azacyclotridecane-11,13-dione] | > 32 | < 4 | 4 to 32 (≈ 6.27 to 50.2 µM) | 4 to 32 (≈ 6.27 to 50.2 µM) | 4 to 32 (≈ 6.27 to 50.2 µM) |
| CCN(CC)[C@H](C)C(=O)N1CC([C@H]2COC(=O)C(C)(C)C(=O)[C@H](C)[C@@H](O[C@@H]3O[C@H](C)C[C@H](N(C)C)[C@H]3O)[C@](C)(OC)C[C@@H](C)CN2C)C1 [Compound 74, (3S,6R,8R,9R,10R)-3-(1-(diethyl-D-alanyl)azetidin-3-yl)-9-(((2S,3R,4S,6R)-4-(dimethylamino)-3-hydroxy-6-methyltetrahydro-2H-pyran-2-yl)oxy)-8-methoxy-4,6,8,10,12,12-hexamethyl-1-oxa-4-azacyclotridecane-11,13-dione] | > 32 | 4 to 32 (≈ 5.86 to 46.9 µM) | < 4 | > 32 | > 32 |
| CCCN1CC([C@@H]2COC(=O)C(C)(C)C(=O)[C@H](C)[C@@H](O[C@@H]3O[C@H](C)C[C@H](N(C)C)[C@H]3O)[C@](C)(OC)C[C@@H](C)CN2C)C1 [Compound 76, (3R,6R,8R,9R,10R)-9-(((2S,3R,4S,6R)-4-(dimethylamino)-3-hydroxy-6-methyltetrahydro-2H-pyran-2-yl)oxy)-8-methoxy-4,6,8,10,12,12-hexamethyl-3-(1-propylazetidin-3-yl)-1-oxa-4-azacyclotridecane-11,13-dione] | > 32 | < 4 | < 4 | 4 to 32 (≈ 6.69 to 53.5 µM) | > 32 |
| CO[C@]1(C)C[C@@H](C)CN(C)[C@H]([C@@H]2CCCNC2)COC(=O)C(C)(C)C(=O)[C@H](C)[C@H]1O[C@@H]1O[C@H](C)C[C@H](N(C)C)[C@H]1O [Compound 77] | > 32 | 4 to 32 (≈ 6.85 to 54.8 µM) | 4 to 32 (≈ 6.85 to 54.8 µM) | > 32 | > 32 |
| CCCN1C2CCC1CC([C@@H]1COC(=O)C(C)(C)C(=O)[C@H](C)[C@@H](O[C@@H]3O[C@H](C)C[C@H](N(C)C)[C@H]3O)[C@](C)(OC)C[C@@H](C)CN1C)C2 (stereo partly drawn) [Compound 79, (3R,6R,8R,9R,10R)-9-(((2S,3R,4S,6R)-4-(dimethylamino)-3-hydroxy-6-methyltetrahydro-2H-pyran-2-yl)oxy)-8-methoxy-4,6,8,10,12,12-hexamethyl-3-(8-propyl-8-azabicyclo[3.2.1]octan-3-yl)-1-oxa-4-azacyclotridecane-11,13-dione] | > 32 | 4 to 32 (≈ 6.14 to 49.1 µM) | < 4 | < 4 | > 32 |
| CO[C@]1(C)C[C@@H](C)CN(C)[C@H](C2CCNCC2)COC(=O)C(C)(C)C(=O)[C@H](C)[C@H]1O[C@@H]1O[C@H](C)C[C@H](N(C)C)[C@H]1O [Compound 80, (3R,6R,8R,9R,10R)-9-(((2S,3R,4S,6R)-4-(dimethylamino)-3-hydroxy-6-methyltetrahydro-2H-pyran-2-yl)oxy)-8-methoxy-4,6,8,10,12,12-hexamethyl-3-(piperidin-4-yl)-1-oxa-4-azacyclotridecane-11,13-dione] | > 32 | 4 to 32 (≈ 6.85 to 54.8 µM) | < 4 | 4 to 32 (≈ 6.85 to 54.8 µM) | > 32 |
| CO[C@]1(C)C[C@@H](C)CN(C)[C@@H](C2CN(CC(C)C)C2)COC(=O)C(C)(C)C(=O)[C@H](C)[C@H]1O[C@@H]1O[C@H](C)C[C@H](N(C)C)[C@H]1O [Compound 81, (3S,6R,8R,9R,10R)-9-(((2S,3R,4S,6R)-4-(dimethylamino)-3-hydroxy-6-methyltetrahydro-2H-pyran-2-yl)oxy)-3-(1-isobutylazetidin-3-yl)-8-methoxy-4,6,8,10,12,12-hexamethyl-1-oxa-4-azacyclotridecane-11,13-dione] | > 32 | 4 to 32 (≈ 6.54 to 52.3 µM) | < 4 | > 32 | > 32 |
| CO[C@]1(C)C[C@@H](C)CN(C)[C@@H]([C@H]2CC[C@H](N(C)C(=O)CN(C)C)CC2)COC(=O)C(C)(C)C(=O)[C@H](C)[C@H]1O[C@@H]1O[C@H](C)C[C@H](N(C)C)[C@H]1O [Compound 82, 2-(dimethylamino)-N-((1S,4r)-4-((3S,6R,8R,9R,10R)-9-(((2S,3R,4S,6R)-4-(dimethylamino)-3-hydroxy-6-methyltetrahydro-2H-pyran-2-yl)oxy)-8-methoxy-4,6,8,10,12,12-hexamethyl-11,13-dioxo-1-oxa-4-azacyclotridecan-3-yl)cyclohexyl)-N-methylacetamide] | > 32 | > 32 | > 32 | > 32 | > 32 |
| CO[C@]1(C)C[C@@H](C)CN(C)[C@H](C2CCN(C(=O)CN(C)C)CC2)COC(=O)C(C)(C)C(=O)[C@H](C)[C@H]1O[C@@H]1O[C@H](C)C[C@H](N(C)C)[C@H]1O [Compound 85, (3R,6R,8R,9R,10R)-9-(((2S,3R,4S,6R)-4-(dimethylamino)-3-hydroxy-6-methyltetrahydro-2H-pyran-2-yl)oxy)-3-(1-(dimethylglycyl)piperidin-4-yl)-8-methoxy-4,6,8,10,12,12-hexamethyl-1-oxa-4-azacyclotridecane-11,13-dione] | > 32 | 4 to 32 (≈ 5.98 to 47.8 µM) | < 4 | > 32 | > 32 |
| CO[C@]1(C)C[C@@H](C)CN(C)[C@H](C2CC3CCC(C2)N3CC(C)C)COC(=O)C(C)(C)C(=O)[C@H](C)[C@H]1O[C@@H]1O[C@H](C)C[C@H](N(C)C)[C@H]1O (stereo partly drawn) [Compound 87, (3R,6R,8R,9R,10R)-9-(((2S,3R,4S,6R)-4-(dimethylamino)-3-hydroxy-6-methyltetrahydro-2H-pyran-2-yl)oxy)-3-(8-isobutyl-8-azabicyclo[3.2.1]octan-3-yl)-8-methoxy-4,6,8,10,12,12-hexamethyl-1-oxa-4-azacyclotridecane-11,13-dione] | > 32 | 4 to 32 (≈ 6.01 to 48.1 µM) | < 4 | < 4 | > 32 |
| CO[C@]1(C)C[C@@H](C)CN(C)[C@H](C2CCCCC2)COC(=O)C(C)(C)C(=O)[C@H](C)[C@H]1O[C@@H]1O[C@H](C)C[C@H](N(C)C)[C@H]1O [Compound 88, (3R,6R,8R,9R,10R)-3-cyclohexyl-9-(((2S,3R,4S,6R)-4-(dimethylamino)-3-hydroxy-6-methyltetrahydro-2H-pyran-2-yl)oxy)-8-methoxy-4,6,8,10,12,12-hexamethyl-1-oxa-4-azacyclotridecane-11,13-dione] | > 32 | > 32 | > 32 | > 32 | > 32 |
| CO[C@]1(C)C[C@@H](C)CN(C)[C@@H]([C@H]2CCCN(C)C2)COC(=O)C(C)(C)C(=O)[C@H](C)[C@H]1O[C@@H]1O[C@H](C)C[C@H](N(C)C)[C@H]1O [Compound 89, (3S,6R,8R,9R,10R)-9-(((2S,3R,4S,6R)-4-(dimethylamino)-3-hydroxy-6-methyltetrahydro-2H-pyran-2-yl)oxy)-8-methoxy-4,6,8,10,12,12-hexamethyl-3-((S)-1-methylpiperidin-3-yl)-1-oxa-4-azacyclotridecane-11,13-dione] | > 32 | > 32 | 4 to 32 (≈ 6.69 to 53.5 µM) | > 32 | > 32 |
| CO[C@]1(C)C[C@@H](C)CN(C)[C@H]([C@@H]2CCCN(C(C)C)C2)COC(=O)C(C)(C)C(=O)[C@H](C)[C@H]1O[C@@H]1O[C@H](C)C[C@H](N(C)C)[C@H]1O [Compound 90, (3R,6R,8R,9R,10R)-9-(((2S,3R,4S,6R)-4-(dimethylamino)-3-hydroxy-6-methyltetrahydro-2H-pyran-2-yl)oxy)-3-((R)-1-isopropylpiperidin-3-yl)-8-methoxy-4,6,8,10,12,12-hexamethyl-1-oxa-4-azacyclotridecane-11,13-dione] | > 32 | 4 to 32 (≈ 6.39 to 51.1 µM) | 4 to 32 (≈ 6.39 to 51.1 µM) | > 32 | > 32 |
